Assay: cn = amount concentration of the nth substance listed, in mol/dm3
Details: 101 kPa, Liquid; for viscosity: Capillary tube (Ostwald / Ubbelohde) method; for mass density: Vibrating tube method

O=C(O)CC(O)(CC(=O)O)C(=O)O [citric acid] + O
Details | mass density, c1 = 0.03 [kg/m3] | mass density, c1 = 0.05 [kg/m3] | mass density, c1 = 0.07 [kg/m3] | mass density, c1 = 0.1 [kg/m3] | viscosity, c1 = 0.03 [mPa·s] | viscosity, c1 = 0.05 [mPa·s] | viscosity, c1 = 0.07 [mPa·s] | viscosity, c1 = 0.1 [mPa·s]
298.15 K | 999.5 | 1000.9 | 1002.6 | 1004.8 | 0.8766 | 0.8921 | 0.9048 | 0.9254
308.15 K | 996.3 | 997.7 | 999.3 | 1001.8 | 0.7136 | 0.7253 | 0.7595 | 0.7855
318.15 K | 992.5 | 993.8 | 995.4 | 997.9 | 0.6253 | 0.6261 | 0.6527 | 0.6766
